Data on eleven molecules can be found in patent US10717716B2, “1,3,4-oxadiazole derivative compounds as histone deacetylase 6 inhibitor, and the pharmaceutical composition comprising the same” (Chong Kun Dang Pharmaceutical Corp., priority 2015, dated 2020).

For the assay, the target named is T1, human recombinant HDAC6 (Homo sapiens, UniProt Q9UBN7).
T1 construct: purchased Calbiochem 382180
T1 sequence (Q9UBN7 1-1215): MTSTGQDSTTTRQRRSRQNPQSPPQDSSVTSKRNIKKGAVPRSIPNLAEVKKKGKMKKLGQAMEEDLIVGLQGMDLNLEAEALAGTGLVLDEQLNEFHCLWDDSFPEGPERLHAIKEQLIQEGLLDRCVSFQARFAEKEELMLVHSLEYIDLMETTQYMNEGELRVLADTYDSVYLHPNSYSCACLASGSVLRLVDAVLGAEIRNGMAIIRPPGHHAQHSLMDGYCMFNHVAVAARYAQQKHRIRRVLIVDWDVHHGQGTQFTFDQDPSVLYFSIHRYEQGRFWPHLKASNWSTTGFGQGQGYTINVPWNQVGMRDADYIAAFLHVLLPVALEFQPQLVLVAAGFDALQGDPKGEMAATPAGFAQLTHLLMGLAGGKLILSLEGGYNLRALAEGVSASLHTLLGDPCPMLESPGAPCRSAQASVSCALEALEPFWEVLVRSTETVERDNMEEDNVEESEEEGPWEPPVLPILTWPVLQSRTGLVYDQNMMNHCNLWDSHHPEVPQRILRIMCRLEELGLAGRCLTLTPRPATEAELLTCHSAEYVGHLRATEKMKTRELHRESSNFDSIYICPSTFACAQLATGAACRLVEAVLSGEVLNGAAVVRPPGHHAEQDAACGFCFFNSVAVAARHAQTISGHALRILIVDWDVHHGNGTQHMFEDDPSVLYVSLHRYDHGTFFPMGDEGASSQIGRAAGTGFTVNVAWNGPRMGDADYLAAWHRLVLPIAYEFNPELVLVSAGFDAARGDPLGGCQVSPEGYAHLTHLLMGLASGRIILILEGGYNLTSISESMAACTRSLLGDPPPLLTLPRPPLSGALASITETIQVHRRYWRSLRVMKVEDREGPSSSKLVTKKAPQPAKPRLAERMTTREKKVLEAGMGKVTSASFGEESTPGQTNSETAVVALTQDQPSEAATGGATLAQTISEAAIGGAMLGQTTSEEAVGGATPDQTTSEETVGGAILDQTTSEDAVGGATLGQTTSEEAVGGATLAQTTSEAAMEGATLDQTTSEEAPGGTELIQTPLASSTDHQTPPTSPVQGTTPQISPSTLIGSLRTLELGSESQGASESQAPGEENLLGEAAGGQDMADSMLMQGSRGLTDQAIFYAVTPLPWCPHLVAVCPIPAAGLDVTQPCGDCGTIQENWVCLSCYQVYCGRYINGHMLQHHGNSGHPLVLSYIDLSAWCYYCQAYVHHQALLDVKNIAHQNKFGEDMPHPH
As to the kind of experiment: HDAC6 enzyme activity inhibition assay (HDAC Fluorimetric Drug Discovery Kit). The class given is biochemical. Particulars: for HDAC6 selectivity (fold): HDAC6 over HDAC1; for IC50: human recombinant HDAC6, same protocol as HDAC1, read-out: HDAC6. In short, it runs like this:
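Fluorimetric deacetylase assay: 5-fold serial compound dilutions, 0.3 μg recombinant human enzyme (HDAC1 or HDAC6, same protocol), 10 μM Fluor de Lys-SIRT1 substrate, 60 min at 30 °C. Signal developed 30 min, measured at 360/460 nm; IC50 values derived.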

In the case of `CN1CCN(C(=O)N(Cc2ccc(-c3nnc(C(F)F)o3)cc2F)c2ccc(-c3cccnc3)cc2)CC1` [Compound 21540, N-(4-(5-(difluoromethyl)-1,3,4-oxadiazol-2-yl)-2-fluorobenzyl)-4-methyl-N-(4-(pyridin-3-yl)phenyl)piperazine-1-carboxamide], the “HDAC6 selectivity (fold)” value is given as 333 fold and the IC50 is 30 nM.
For `CN1CCN(C(=O)N(Cc2ccc(-c3nnc(C(F)F)o3)cc2F)c2ccc(-c3ccncc3)cc2)CC1` [Compound 21541, N-(4-(5-(difluoromethyl)-1,3,4-oxadiazol-2-yl)-2-fluorobenzyl)-4-methyl-N-(4-(pyridin-4-yl)phenyl)piperazine-1-carboxamide] the same measures were 156 fold and 64 nM.
As to `CN1CCN(C(=O)N(Cc2ccc(-c3nnc(C(F)F)o3)cc2F)c2ccc(-c3ccccc3)cc2)CC1` [Compound 21542, N-([1,1′-biphenyl]-4-yl)-N-(4-(5-(difluoromethyl)-1,3,4-oxadiazol-2-yl)-2-fluorobenzyl)-4-methylpiperazine-1-carboxamide], the “HDAC6 selectivity (fold)” value came to 164 fold and the IC50 was 61 nM.
In the case of `O=C(N1CCS(=O)(=O)CC1)N(Cc1ccc(-c2nnc(C(F)F)o2)cc1F)c1ccc2c(c1)CCO2` [Compound 21544, N-(4-(5-(difluoromethyl)-1,3,4-oxadiazol-2-yl)-2-fluorobenzyl)-N-(2,3-dihydrobenzofuran-5-yl)thiomorpholine-4-carboxamide 1,1-dioxide], the “HDAC6 selectivity (fold)” value is 294 fold and the IC50 amounted to 34 nM.
For `Cn1ncc2ccc(N(Cc3ccc(-c4nnc(C(F)F)o4)cc3F)C(=O)N3CCS(=O)(=O)CC3)cc21` [Compound 21546, N-(4-(5-(difluoromethyl)-1,3,4-oxadiazol-2-yl)-2-fluorobenzyl)-N-(1-methyl-1H-indazol-6-yl)thiomorpholine-4-carboxamide 1,1-dioxide] the same measures were 476 fold and 21 nM.
For `CCN(CC)c1ccc(N(Cc2ccc(-c3nnc(C(F)(F)F)o3)cc2F)C(=O)N2CCS(=O)(=O)CC2)cc1` [Compound 21552, N-(4-(diethylamino)phenyl)-N-(2-fluoro-4-(5-(trifluoromethyl)-1,3,4-oxadiazol-2-yl)benzyl)thiomorpholine-4-carboxamide 1,1-dioxide] the same measures were 7 fold and 1520 nM.
For `CCN(CC)c1ccc(N(Cc2ccc(-c3nnc(C(F)F)o3)cc2F)C(=O)N2CCS(=O)(=O)CC2)cc1` [Compound 21553] the same measures were 14 fold and 697 nM.
As for `CN1CCN(C(=O)N(CCc2ccccc2)Cc2ccc(-c3nnc(C(F)F)o3)cc2F)CC1` [Compound 21554, N-(4-(5-(difluoromethyl)-1,3,4-oxadiazol-2-yl)-2-fluorobenzyl)-4-methyl-N-phenethylpiperazine-1-carboxamide], the “HDAC6 selectivity (fold)” value worked out at 65 fold and the IC50 was found to be 155 nM.
For `O=C(N1CCOCC1)N(CCc1ccccc1)Cc1ccc(-c2nnc(C(F)F)o2)cc1F` [Compound 21555, N-(4-(5-(difluoromethyl)-1,3,4-oxadiazol-2-yl)-2-fluorobenzyl)-N-phenethylmorpholine-4-carboxamide] the same measures were 26 fold and 386 nM.
For `COc1ccccc1CCN(Cc1ccc(-c2nnc(C(F)F)o2)cc1F)C(=O)N1CCN(C)CC1` [Compound 21556, N-(4-(5-(difluoromethyl)-1,3,4-oxadiazol-2-yl)-2-fluorobenzyl)-N-(2-methoxyphenethyl)-4-methylpiperazine-1-carboxamide] the same measures were 36 fold and 281 nM.
For `COc1ccccc1CCN(Cc1ccc(-c2nnc(C(F)F)o2)cc1F)C(=O)N1CCOCC1` [Compound 21557, N-(4-(5-(difluoromethyl)-1,3,4-oxadiazol-2-yl)-2-fluorobenzyl)-N-(2-methoxyphenethyl) morpholine-4-carboxamide] the same measures were 41 fold and 244 nM.
